Assay results published in US10259779B2 (WAYNE STATE UNIVERSITY, priority 2016, dated 2019).
Each block holds one compound with its values, some of them ahead of it.

Experiments:
recombinant HDAC8 = target: T1, recombinant HDAC8 (Homo sapiens, UniProt Q9BY41); experiment: Recombinant HDAC8 inhibition (HDAC-Glo); format: biochemical; settings: for activity at 0.1 µM: 1.0 × 10^−7 M; for activity at 0.2 µM: 2.0 × 10^−7 M; for activity at […]: 2.5 × 10^−8 M; for activity at 0.05 µM: 5.0 × 10^−8 M; for HDAC8 fold selectivity HDAC1: HDAC8 over HDAC1; for HDAC8 fold selectivity HDAC1 / HDAC8 fold selectivity HDAC2 / HDAC8 fold selectivity HDAC3: calculated from IC50 values; for HDAC8 fold selectivity HDAC2: HDAC8 over HDAC2; for HDAC8 fold selectivity HDAC3: HDAC8 over HDAC3; for activity at 0.0125 µM: 1.25 × 10^−8 M; for fold selectivity for HDAC8 over HDAC1, 2, and 3: HDAC8 versus HDAC1, 2, 3
T1 construct: purchased BPS Bioscience
T1 sequence (Q9BY41 1-377): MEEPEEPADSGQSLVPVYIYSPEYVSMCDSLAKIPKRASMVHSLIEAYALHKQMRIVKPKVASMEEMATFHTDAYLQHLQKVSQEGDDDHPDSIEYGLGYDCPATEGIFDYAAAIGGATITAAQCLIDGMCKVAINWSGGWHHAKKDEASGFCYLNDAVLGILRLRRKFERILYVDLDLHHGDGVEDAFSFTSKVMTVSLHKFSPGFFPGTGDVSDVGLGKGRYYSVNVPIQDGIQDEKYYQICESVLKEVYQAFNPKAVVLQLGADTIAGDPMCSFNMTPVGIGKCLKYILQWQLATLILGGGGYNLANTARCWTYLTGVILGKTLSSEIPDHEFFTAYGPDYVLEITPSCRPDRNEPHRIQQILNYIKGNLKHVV
Description: Inhibitory activity with HDAC8 was measured using the following procedure. In a half area 96-well white opaque plate, recombinant HDAC8 (75 ng, BPS Bioscience) was incubated in HDAC-Glo™ buffer (39 μL) with inhibitor in DMSO (1 μL), or DMSO alone (1 μL) as a control, for 15 minutes at room temperature. HDAC-Glo™ reagent (10 μL) was added to each reaction and incubated for 30 min at room temperature. Luminescent signal was measured 30 minutes after adding the substrate reagent using a Geniosplus Fluorimeter (Tecan) at optimal gain. To determine IC50, the luminescent signal was first background corrected with the signal from a background control reaction where no HDAC8 enzyme was added.

HDAC1 = HDAC1 (Homo sapiens, UniProt Q13547); experiment: ELISA-based HDAC activity assay, HDAC1
HDAC2 = HDAC2 (Homo sapiens, UniProt Q92769); experiment: ELISA-based HDAC activity assay, HDAC2
HDAC3 = HDAC3 (Homo sapiens, UniProt O15379); experiment: ELISA-based HDAC activity assay, HDAC3
HDAC6 = target: T2, HDAC6 (Homo sapiens, UniProt Q9UBN7); experiment: ELISA-based HDAC activity assay, HDAC6; settings: for HDAC6 fold selectivity HDAC1: HDAC6 over HDAC1; for HDAC6 fold selectivity HDAC1 / HDAC6 fold selectivity HDAC2 / HDAC6 fold selectivity HDAC3: calculated from IC50 values; for HDAC6 fold selectivity HDAC2: HDAC6 over HDAC2; for HDAC6 fold selectivity HDAC3: HDAC6 over HDAC3
T2 sequence (Q9UBN7 1-1215): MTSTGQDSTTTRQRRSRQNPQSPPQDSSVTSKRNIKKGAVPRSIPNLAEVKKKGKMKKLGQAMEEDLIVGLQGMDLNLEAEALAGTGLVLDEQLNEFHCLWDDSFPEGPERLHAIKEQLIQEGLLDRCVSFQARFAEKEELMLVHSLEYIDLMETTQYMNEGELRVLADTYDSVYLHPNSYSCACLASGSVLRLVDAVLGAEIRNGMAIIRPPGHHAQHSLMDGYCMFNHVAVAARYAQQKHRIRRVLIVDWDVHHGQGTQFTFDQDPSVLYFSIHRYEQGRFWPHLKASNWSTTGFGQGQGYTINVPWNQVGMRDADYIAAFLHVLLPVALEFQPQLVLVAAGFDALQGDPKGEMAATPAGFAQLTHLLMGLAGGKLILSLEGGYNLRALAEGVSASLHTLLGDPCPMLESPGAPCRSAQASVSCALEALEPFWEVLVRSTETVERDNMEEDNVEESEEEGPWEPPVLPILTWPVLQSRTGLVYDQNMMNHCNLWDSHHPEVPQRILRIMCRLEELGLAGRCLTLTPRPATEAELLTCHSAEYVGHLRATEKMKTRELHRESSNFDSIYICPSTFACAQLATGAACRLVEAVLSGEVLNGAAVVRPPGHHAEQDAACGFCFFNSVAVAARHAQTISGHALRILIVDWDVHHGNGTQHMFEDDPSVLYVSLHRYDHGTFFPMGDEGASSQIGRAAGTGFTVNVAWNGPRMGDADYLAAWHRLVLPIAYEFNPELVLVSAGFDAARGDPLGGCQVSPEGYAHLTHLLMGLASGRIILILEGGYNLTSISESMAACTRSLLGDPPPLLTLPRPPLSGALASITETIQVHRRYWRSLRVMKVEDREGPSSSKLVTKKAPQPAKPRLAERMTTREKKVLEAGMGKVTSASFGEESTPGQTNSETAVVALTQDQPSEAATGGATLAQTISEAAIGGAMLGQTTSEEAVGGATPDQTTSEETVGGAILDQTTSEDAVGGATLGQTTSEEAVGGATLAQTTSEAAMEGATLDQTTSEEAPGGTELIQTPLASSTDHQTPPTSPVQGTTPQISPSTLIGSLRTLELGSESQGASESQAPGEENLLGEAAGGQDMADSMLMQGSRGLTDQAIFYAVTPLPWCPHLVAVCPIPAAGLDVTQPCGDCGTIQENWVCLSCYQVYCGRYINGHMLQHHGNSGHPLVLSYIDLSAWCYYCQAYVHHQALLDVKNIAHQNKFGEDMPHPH

[1] = read-out: Deacetylase activity (%) HDAC8
[2] = potency (IC50) to HDAC1, 2, and 3, range over HDAC1, 2, and 3
[3] = read-out: Deacetylase activity (%) HDAC1
[4] = read-out: Deacetylase activity (%) HDAC2
[5] = read-out: Deacetylase activity (%) HDAC3
[6] = read-out: Deacetylase activity (%) HDAC6

HDAC2, sequence (Q92769 whole entry): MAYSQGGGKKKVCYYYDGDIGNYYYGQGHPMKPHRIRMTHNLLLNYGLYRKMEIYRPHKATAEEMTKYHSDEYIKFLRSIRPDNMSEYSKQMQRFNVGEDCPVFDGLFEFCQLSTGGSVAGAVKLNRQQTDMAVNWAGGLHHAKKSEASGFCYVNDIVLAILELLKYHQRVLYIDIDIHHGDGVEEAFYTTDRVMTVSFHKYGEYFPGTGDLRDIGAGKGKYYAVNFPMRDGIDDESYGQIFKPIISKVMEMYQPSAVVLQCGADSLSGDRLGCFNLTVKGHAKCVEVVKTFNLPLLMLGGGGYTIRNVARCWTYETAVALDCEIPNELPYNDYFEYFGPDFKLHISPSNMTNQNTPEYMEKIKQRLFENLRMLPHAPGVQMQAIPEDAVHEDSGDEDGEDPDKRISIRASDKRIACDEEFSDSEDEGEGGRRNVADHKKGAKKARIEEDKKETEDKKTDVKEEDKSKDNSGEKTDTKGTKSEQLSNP
HDAC1, sequence (Q13547 whole entry): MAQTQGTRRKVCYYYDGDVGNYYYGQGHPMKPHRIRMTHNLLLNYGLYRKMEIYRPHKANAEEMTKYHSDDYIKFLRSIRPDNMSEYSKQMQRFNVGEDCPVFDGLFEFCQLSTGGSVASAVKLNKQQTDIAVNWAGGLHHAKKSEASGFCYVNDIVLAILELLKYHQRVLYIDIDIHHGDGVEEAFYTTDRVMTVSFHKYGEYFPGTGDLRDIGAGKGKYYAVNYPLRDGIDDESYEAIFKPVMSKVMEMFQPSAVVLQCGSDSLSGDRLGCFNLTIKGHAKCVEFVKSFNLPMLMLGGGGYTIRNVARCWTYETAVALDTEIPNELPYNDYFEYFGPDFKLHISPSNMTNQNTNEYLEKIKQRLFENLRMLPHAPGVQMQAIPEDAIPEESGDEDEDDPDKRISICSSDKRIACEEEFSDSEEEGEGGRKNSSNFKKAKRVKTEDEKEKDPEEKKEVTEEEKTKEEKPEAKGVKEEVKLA
HDAC3, sequence (O15379 whole entry): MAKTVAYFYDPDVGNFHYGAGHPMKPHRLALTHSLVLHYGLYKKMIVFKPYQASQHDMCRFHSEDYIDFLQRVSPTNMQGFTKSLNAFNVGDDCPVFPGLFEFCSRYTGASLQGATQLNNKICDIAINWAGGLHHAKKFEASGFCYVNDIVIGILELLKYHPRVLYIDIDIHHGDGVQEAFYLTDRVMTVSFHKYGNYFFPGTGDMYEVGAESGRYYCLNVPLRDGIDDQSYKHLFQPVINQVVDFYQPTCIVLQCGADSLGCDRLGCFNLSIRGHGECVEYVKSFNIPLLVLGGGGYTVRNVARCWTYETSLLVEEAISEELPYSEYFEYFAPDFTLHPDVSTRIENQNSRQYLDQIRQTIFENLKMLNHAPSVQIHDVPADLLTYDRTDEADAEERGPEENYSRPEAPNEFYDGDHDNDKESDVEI
HDAC3, sequence (Q9Y618 whole entry partner): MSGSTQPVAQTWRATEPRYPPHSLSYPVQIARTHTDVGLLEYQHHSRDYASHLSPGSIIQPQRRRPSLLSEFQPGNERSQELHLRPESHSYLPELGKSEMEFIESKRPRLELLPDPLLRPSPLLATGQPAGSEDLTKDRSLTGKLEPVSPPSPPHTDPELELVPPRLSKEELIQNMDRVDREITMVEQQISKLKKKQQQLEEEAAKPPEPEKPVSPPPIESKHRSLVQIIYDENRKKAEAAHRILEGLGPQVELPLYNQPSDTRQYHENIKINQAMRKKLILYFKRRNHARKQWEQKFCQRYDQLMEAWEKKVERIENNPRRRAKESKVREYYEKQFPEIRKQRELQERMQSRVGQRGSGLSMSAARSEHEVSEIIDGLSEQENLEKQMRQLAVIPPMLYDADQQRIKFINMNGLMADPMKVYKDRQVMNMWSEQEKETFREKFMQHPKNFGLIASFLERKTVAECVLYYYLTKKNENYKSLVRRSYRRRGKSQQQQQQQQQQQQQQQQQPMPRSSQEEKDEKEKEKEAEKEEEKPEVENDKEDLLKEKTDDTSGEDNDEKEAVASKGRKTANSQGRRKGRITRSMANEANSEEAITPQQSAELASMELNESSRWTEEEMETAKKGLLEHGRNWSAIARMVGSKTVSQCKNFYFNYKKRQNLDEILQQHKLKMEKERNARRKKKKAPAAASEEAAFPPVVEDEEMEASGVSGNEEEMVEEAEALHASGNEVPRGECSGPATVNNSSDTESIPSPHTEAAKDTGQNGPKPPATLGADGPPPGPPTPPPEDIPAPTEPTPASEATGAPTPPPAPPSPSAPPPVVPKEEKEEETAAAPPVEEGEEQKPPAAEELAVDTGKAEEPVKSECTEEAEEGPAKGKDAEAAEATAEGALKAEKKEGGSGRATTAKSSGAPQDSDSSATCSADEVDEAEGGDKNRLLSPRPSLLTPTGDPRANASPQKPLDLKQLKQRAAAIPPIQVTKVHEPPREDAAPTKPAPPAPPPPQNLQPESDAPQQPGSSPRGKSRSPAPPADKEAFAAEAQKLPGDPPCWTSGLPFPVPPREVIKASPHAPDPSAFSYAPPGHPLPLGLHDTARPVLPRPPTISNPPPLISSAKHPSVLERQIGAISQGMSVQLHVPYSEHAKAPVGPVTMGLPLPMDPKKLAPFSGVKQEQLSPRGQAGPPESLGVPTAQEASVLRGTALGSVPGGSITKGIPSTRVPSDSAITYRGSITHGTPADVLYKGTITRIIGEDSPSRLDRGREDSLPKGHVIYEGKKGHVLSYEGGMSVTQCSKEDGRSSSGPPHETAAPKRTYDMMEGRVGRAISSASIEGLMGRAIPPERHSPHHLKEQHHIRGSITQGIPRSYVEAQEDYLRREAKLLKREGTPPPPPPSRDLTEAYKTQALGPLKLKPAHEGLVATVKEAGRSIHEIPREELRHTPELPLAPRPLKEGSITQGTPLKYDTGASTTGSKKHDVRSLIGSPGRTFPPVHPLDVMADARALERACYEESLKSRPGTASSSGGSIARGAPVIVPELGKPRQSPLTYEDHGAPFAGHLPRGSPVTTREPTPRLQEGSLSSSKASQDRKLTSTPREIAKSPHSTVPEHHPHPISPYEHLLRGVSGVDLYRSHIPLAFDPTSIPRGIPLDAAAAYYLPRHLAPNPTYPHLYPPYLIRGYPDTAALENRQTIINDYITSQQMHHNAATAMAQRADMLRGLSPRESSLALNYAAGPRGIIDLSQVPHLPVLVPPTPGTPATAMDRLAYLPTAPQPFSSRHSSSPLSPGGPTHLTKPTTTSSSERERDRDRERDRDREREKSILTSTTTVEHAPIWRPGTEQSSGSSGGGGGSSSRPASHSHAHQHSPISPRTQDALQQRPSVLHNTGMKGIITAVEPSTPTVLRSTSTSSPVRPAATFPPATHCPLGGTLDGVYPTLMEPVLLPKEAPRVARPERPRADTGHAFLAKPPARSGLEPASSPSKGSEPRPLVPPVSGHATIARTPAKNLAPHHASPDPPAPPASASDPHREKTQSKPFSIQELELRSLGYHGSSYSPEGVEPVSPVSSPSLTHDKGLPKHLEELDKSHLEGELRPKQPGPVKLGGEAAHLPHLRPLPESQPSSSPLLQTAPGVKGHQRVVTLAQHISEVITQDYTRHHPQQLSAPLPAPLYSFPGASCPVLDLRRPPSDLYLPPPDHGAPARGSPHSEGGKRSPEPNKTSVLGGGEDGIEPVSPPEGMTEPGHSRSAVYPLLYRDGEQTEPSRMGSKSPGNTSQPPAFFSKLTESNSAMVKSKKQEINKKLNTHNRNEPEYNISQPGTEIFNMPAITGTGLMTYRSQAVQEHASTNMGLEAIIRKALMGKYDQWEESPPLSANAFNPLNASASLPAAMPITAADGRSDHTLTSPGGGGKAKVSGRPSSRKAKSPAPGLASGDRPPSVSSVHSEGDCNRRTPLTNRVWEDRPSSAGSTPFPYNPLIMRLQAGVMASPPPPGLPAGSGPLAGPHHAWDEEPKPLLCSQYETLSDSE

IC50 (recombinant HDAC8): 130 ± 3 nM
activity at 0.1 µM (recombinant HDAC8; [1]): 55 ± 2%
activity at 0.2 µM (recombinant HDAC8; [1]): 39 ± 1%
activity at […] (recombinant HDAC8; [1]): 83 ± 2%
activity at 0.4 µM (recombinant HDAC8; 4.0 × 10^−7 M, read-out: Deacetylase activity (%) HDAC8): 25 ± 1%
activity at 0.05 µM (recombinant HDAC8; [1]): 73 ± 2%
HDAC8 fold selectivity HDAC1 (recombinant HDAC8): 34 fold
HDAC8 fold selectivity HDAC2 (recombinant HDAC8): 38 fold
HDAC8 fold selectivity HDAC3 (recombinant HDAC8): 46 fold
IC50 (HDAC1; IC50 values (nM) HDAC1): 4400 nM
IC50 (HDAC1; [2]): 4400 to 6000 nM
activity at 1 µM (HDAC1; [3]): 81 ± 3%
activity at 2 µM (HDAC1; [3]): 68 ± 5%
activity at 4 µM (HDAC1; [3]): 58 ± 1%
activity at 8 µM (HDAC1; [3]): 32 ± 4%
activity at 16 µM (HDAC1; [3]): 19 ± 1%
IC50 (HDAC2): 4.9 µM
activity at 1 µM (HDAC2; [4]): 86 ± 2%
activity at 2 µM (HDAC2; [4]): 69 ± 1%
activity at 4 µM (HDAC2; [4]): 59 ± 2%
activity at 8 µM (HDAC2; [4]): 34 ± 7%
activity at 16 µM (HDAC2; [4]): 23 ± 2%
IC50 (HDAC3): 6 µM
activity at 1 µM (HDAC3; [5]): 83 ± 7%
activity at 2 µM (HDAC3; [5]): 71 ± 4%
activity at 4 µM (HDAC3; [5]): 64 ± 2%
activity at 8 µM (HDAC3; [5]): 52 ± 6%
activity at 16 µM (HDAC3; [5]): 17 ± 8%
IC50 (HDAC6): 160 ± 10 nM
HDAC6 fold selectivity HDAC1 (HDAC6): 28 fold
HDAC6 fold selectivity HDAC2 (HDAC6): 31 fold
HDAC6 fold selectivity HDAC3 (HDAC6): 38 fold
activity at 0.05 µM (HDAC6; [6]): 74 ± 7%
activity at 0.1 µM (HDAC6; [6]): 61 ± 6%
activity at 0.2 µM (HDAC6; [6]): 43 ± 5%
activity at 0.4 µM (HDAC6; [6]): 33 ± 3%
activity at […] (HDAC6; [6]): 80 ± 8%
SMILES: CCC(CCCC(=O)Nc1ccccc1)CCC(=O)NO (racemic) [Compound 1b, 4-ethyl-N^1-hydroxy-N^8-phenyloctanediamide]

IC50 (recombinant HDAC8): 79 ± 3 nM
activity at 0.1 µM (recombinant HDAC8; [1]): 42 ± 4%
activity at 0.0125 µM (recombinant HDAC8; [1]): 92 ± 1%
activity at 0.2 µM (recombinant HDAC8; [1]): 27 ± 2%
activity at […] (recombinant HDAC8; [1]): 78 ± 6%
activity at 0.05 µM (recombinant HDAC8; [1]): 63 ± 4%
HDAC8 fold selectivity HDAC1 (recombinant HDAC8): 440 fold
HDAC8 fold selectivity HDAC2 (recombinant HDAC8): 480 fold
HDAC8 fold selectivity HDAC3 (recombinant HDAC8): 380 fold
fold selectivity for HDAC8 over HDAC1, 2, and 3 (recombinant HDAC8): ≥ 380 fold
IC50 (HDAC1; IC50 values (nM) HDAC1): 35000 nM
IC50 (HDAC1; [2]): 30000 to 38000 nM
activity at 1.25 µM (HDAC1; [3]): 97 ± 3%
activity at 10 µM (HDAC1; [3]): 83 ± 4%
activity at 20 µM (HDAC1; [3]): 67 ± 4%
activity at 40 µM (HDAC1; [3]): 46 ± 1%
activity at 80 µM (HDAC1; [3]): 26 ± 2%
activity at 160 µM (HDAC1; [3]): 13 ± 1%
IC50 (HDAC2): 38 µM
activity at 1.25 µM (HDAC2; [4]): 101 ± 2%
activity at 10 µM (HDAC2; [4]): 79 ± 6%
activity at 20 µM (HDAC2; [4]): 73 ± 2%
activity at 40 µM (HDAC2; [4]): 46 ± 6%
activity at 80 µM (HDAC2; [4]): 31 ± 2%
activity at 160 µM (HDAC2; [4]): 16 ± 1%
IC50 (HDAC3): 30 µM
activity at 1.25 µM (HDAC3; [5]): 100 ± 6%
activity at 10 µM (HDAC3; [5]): 88 ± 2%
activity at 20 µM (HDAC3; [5]): 56 ± 4%
activity at 40 µM (HDAC3; [5]): 42 ± 5%
activity at 80 µM (HDAC3; [5]): 25 ± 1%
activity at 160 µM (HDAC3; [5]): 5 ± 3%
IC50 (HDAC6): 140 ± 10 nM
HDAC6 fold selectivity HDAC1 (HDAC6): 250 fold
HDAC6 fold selectivity HDAC2 (HDAC6): 270 fold
HDAC6 fold selectivity HDAC3 (HDAC6): 210 fold
activity at 0.05 µM (HDAC6; [6]): 75 ± 6%
activity at 0.1 µM (HDAC6; [6]): 56 ± 4%
activity at 0.2 µM (HDAC6; [6]): 42 ± 4%
activity at 0.4 µM (HDAC6; [6]): 27 ± 2%
activity at 1.25 µM (HDAC6; [6]): 21 ± 2%
activity at […] (HDAC6; [6]): 77 ± 9%
SMILES: CCCCCCC(CCCC(=O)Nc1ccccc1)CCC(=O)NO (racemic) [Compound 1d, 4-hexyl-N^1-hydroxy-N^8-phenyloctanediamide]

IC50 (recombinant HDAC8): 57 nM
activity at 0.1 µM (recombinant HDAC8; [1]): 34 ± 2%
activity at 0.0125 µM (recombinant HDAC8; [1]): 87 ± 4%
activity at 0.2 µM (recombinant HDAC8; [1]): 21 ± 1%
activity at […] (recombinant HDAC8; [1]): 73 ± 2%
activity at 0.05 µM (recombinant HDAC8; [1]): 51 ± 1%
HDAC8 fold selectivity HDAC1 (recombinant HDAC8): 510 fold
HDAC8 fold selectivity HDAC2 (recombinant HDAC8): 670 fold
HDAC8 fold selectivity HDAC3 (recombinant HDAC8): 740 fold
fold selectivity for HDAC8 over HDAC1, 2, and 3 (recombinant HDAC8): ≥ 510 fold
IC50 (HDAC1; potency (IC50) with HDAC1, text, Table 4 value in μM): 29000 nM
activity at 5 µM (HDAC1; [3]): 87 ± 4%
activity at 10 µM (HDAC1; [3]): 75 ± 5%
activity at 20 µM (HDAC1; [3]): 58 ± 5%
activity at 40 µM (HDAC1; [3]): 44 ± 2%
activity at 80 µM (HDAC1; [3]): 27 ± 2%
activity at 160 µM (HDAC1; [3]): 16 ± 1%
IC50 (HDAC2): 32 µM
activity at 5 µM (HDAC2; [4]): 92 ± 4%
activity at 10 µM (HDAC2; [4]): 74 ± 4%
activity at 20 µM (HDAC2; [4]): 60 ± 1%
activity at 40 µM (HDAC2; [4]): 47 ± 1%
activity at 80 µM (HDAC2; [4]): 27 ± 5%
activity at 160 µM (HDAC2; [4]): 20 ± 1%
IC50 (HDAC3): 42 µM
activity at 5 µM (HDAC3; [5]): 90 ± 3%
activity at 10 µM (HDAC3; [5]): 87 ± 4%
activity at 20 µM (HDAC3; [5]): 63 ± 5%
activity at 40 µM (HDAC3; [5]): 55 ± 3%
activity at 80 µM (HDAC3; [5]): 33 ± 2%
activity at 160 µM (HDAC3; [5]): 19 ± 2%
IC50 (HDAC6): 140 nM
HDAC6 fold selectivity HDAC1 (HDAC6): 210 fold
HDAC6 fold selectivity HDAC2 (HDAC6): 270 fold
HDAC6 fold selectivity HDAC3 (HDAC6): 300 fold
activity at 0.05 µM (HDAC6; [6]): 76 ± 5%
activity at 0.1 µM (HDAC6; [6]): 60 ± 4%
activity at 0.2 µM (HDAC6; [6]): 45 ± 5%
activity at 0.4 µM (HDAC6; [6]): 18 ± 4%
activity at 5 µM (HDAC6; [6]): 2.9 ± 0.5%
activity at […] (HDAC6; [6]): 90 ± 7%
SMILES: O=C(CCC(CCCC(=O)Nc1ccccc1)Cc1ccccc1)NO (racemic) [Compound 1f, 4-benzyl-N^1-hydroxy-N^8-phenyloctanediamide]
